In patent US12441690B2, “Benzamide derivative compound, method for preparing same, and pharmaceutical composition for treating or preventing inflammatory disease containing same as active ingredient” (SEOUL NATIONAL UNIVERSITY R&DB FOUNDATION, priority 2017, dated 2025):

Key:
[1] = biological target: PDE4B GFP fusion protein (human PDE4B2A) (Homo sapiens (Human), UniProt Q07343); assay: PDE4B GFP fusion protein-inhibitor assay in HEK-293 cells; assay type: cell-based
Description: To evaluate the intracellular enzyme inhibitory activity of the compounds of Examples 1 and 25, PDE4B GFP fusion protein-inhibitor assay was performed using GFP (green fluorescent protein).
The DNA complementary to human PDE4B2A was amplified by PCR using the DNA genome extracted from the human blood sample (QIAamp DNA Blood Mini Kit, Qiagen, Valencia, CA, U.S.A.).
For DNA amplification, 5′-[…]-3′ was used as a forward primer, and 5′-[…]-3′ was used as a reverse primer.
The amplified PDE4B2A cDNA was cloned into pAcGFP1-N1, the mammalian expression mediator, between the EcoR1 and BamH1 restriction enzyme sites, which was transfected into E. coli DH5α cells using chemical transformation reagents (Invitrogen, Carlsbad, CA, U.S.A.).
Plasmids were isolated from the colonies with kanamycin using Plasmid Midi Kit (Qiagen, Valencia, CA, U.S.A.). Then, the plasmid cloned with PDE4B2A gene was transfected into HEK-293 cells (Korean Cell Line Bank, Seoul, Korea) using lipofectamine 3000 (Invitrogen).
The transfected cells were cultured in DMEM at 37° C. for 48 hours in a CO2 incubator. […] Upon completion of the culture, the fluorescence emission of HEK-293 cells was measured by confocal microscopy to perform quantitative analysis, and the results are shown in FIGS. 1 and 2.
In addition, the ratio of the surface cover area of GFP to the total cell surface area was measured using MetaMorph software, and the results are shown in FIG. 2.

[2] = tested on: dorsal skin tissue of Nc/Nga mice treated with DNCB; assay: Observation of mouse dorsal skin tissue (H&E, toluidine blue, CD4+ cell staining); assay type: in vivo; conditions: for expression of IFN-γ in CD4+ cells / expression of IL-4 of CD4+ cells / expression of IL-5 of CD4+ cells / expression of IL-17 of CD4+ cells: applied on the skin; for expression of IL-4 of CD4+ cells / expression of IL-5 of CD4+ cells / expression of IL-17 of CD4+ cells: compared to DNCB alone; for number of mast cells in skin tissue (toluidine blue): compared to mouse treated with DNCB alone; for skin structure of tissue sections (H&E): groups treated with the compound without DNCB; for epidermal hyperplasia and keratosis (H&E) / inflammatory cells in skin sections (H&E): treated with DNCB
Description: The dorsal skin samples were obtained from the experimental group and control group mice. The samples were fixed using 10% neutral buffered formalin and then embedded in paraffin. 4 μm thin tissue sections were prepared and stained with H & E (hematoxylin & eosin). […] In addition, the sections were stained with toluidine blue to investigate mast cell infiltration. Then, the stained tissue sections were photographed using NikonAX70 optical microscope (Tokyo, Japan).
In addition, the mouse tissue CD4+ cells were stained to confirm the expressions of IL-17, IFN-γ, IL-4 and IL-5.

[3] = tested on: TNF-α secretion in human PBMC cells; assay: Inhibition of TNF-α synthesis in LPS-stimulated human PBMC cells; assay type: cell-based; conditions: human PBMC cells stimulated using bacterial LPS
Description: In addition, to evaluate the inhibitory effect of the compounds of Example 1 and Example 25 on the synthesis of TNF-α, in vitro assay was performed. Particularly, after culturing human PBMC cells, the secretion of TNF-α was stimulated using bacterial LPS, and the expression level of TNF-α was measured.

[4] = tested on: IL-4, IL-5, IFN-γ, IL-17 and IgE in mouse skin tissues; assay: Sandwich ELISA with mouse skin tissues; assay type: in vivo; conditions: for expression of IL-4 (ELISA) / expression of IL-5 (ELISA) / expression of IL-17 (ELISA): DNCB; for expression of IgE (ELISA): treated with DNCB
Description: To confirm the effect of the compounds according to the present invention on the synthesis of DNCB-induced IgE and inflammatory mediators, ELISA (Enzyme-Linked ImmunoSorbent Assay) was performed with the control group and the experimental group treated with the compounds of Example 1 and Example 25.
FIG. 11(a)-FIG. 11(e) are graphs showing the expression levels of IL-4, IL-5, IFN-γ, IL-17 and IgE, respectively, shown when performing sandwich ELISA (Enzyme-Linked ImmunoSorbent Assay) with the mouse skin tissues.

PDE4B enzyme = PDE4B enzyme (Homo sapiens (Human), UniProt Q07343); assay: PDE4B inhibitory activity, LANCE Ultra cAMP assay; assay type: biochemical; conditions: 50% inhibition from cAMP to 5′AMP
Description: In order to evaluate the PDE4B inhibitory activity of the compounds according to the present invention, the following experiment was performed using LANCE Ultra cAMP assay kit (Perkin Elmer, U.S.A).
Particularly, 5 μl of the 3 nM cAMP dissolved reaction buffer was added to each reaction well (LANCE Ultra cAMP assay kit). Then, each example compound dilution solution (2.5 μl) and PDE4B enzyme (0.1 ng/well, BPS Biosciences, San Diego, U.S.A) were added to the well, followed by incubation for 1 hour at 37° C. Next, 5 μl of ULight-anti-cAMP detection reactant supplemented with 5 μl of Eu-cAMP tracer and 1 mM IBMX (LANCE Ultra cAMP assay kit) was added thereto, followed by incubation for 1 hour at 37° C.

[5] = tested on: Nc/Nga mice treated with DNCB; assay: Relief of atopic symptoms in Nc/Nga mice treated with DNCB; assay type: in vivo, mouse; conditions: for weight of the spleen: DNCB-treated mice; for lymph node size / number of scratches for 20 minutes / symptoms of hypertrophy and edema of incised dorsal skin / weight of the lymph node: compared to mouse treated with DNCB alone; for skin thickness: incised dorsal skin, DNCB alone 1.19 mm, control 0.45 mm; for side effects: mouse treated with the compound alone, applied on dorsal skin; for incidence of inflammation on the dorsal skin: treated together with DNCB, compared to DNCB only, last day of experiment; for dermatitis score at week 5: treated with DNCB, total of 12 points
Description: In order to confirm the atopic dermatitis alleviation effect of the compounds of Examples 1 and 25 according to the present invention, atopic symptom relief experiments were performed on the mice with atopic symptoms.
DNCB (dinitrochlorobenzene) was applied on the back of Nc/Nga mouse to induce atopic dermatitis-like symptoms.
As a carrier for treating DNCB, acetone-olive oil in which acetone and olive oil were mixed (3:1) was used. Six groups of mice were prepared as follows: mice treated with the carrier alone; mice treated with Example 1 compound, mice treated with Example 25 compound, mice treated with DNCB alone, mice treated with DNCB and Example 1 compound, and mice treated with DNCB and Example 25 compound.
Particularly, 2 days before the start of the experiment, hair of the dorsal skin of the mouse was removed. After 2 days after removing the hair, 150 μl of 1% DNCB was dissolved in a carrier and applied on the dorsal skin of the mouse. Four days later, the same solution was applied on the dorsal skin of the mouse once again. Then, 150 μl of 0.2% DNCB solution was applied on the dorsal skin of the mouse once a week for 5 weeks. The experimental group mice were applied with the compounds of Example 1 and Example 25 daily from the 6th day of the experiment to the end of the experiment.
The degree of atopic symptoms in the experimental group and control group mice was evaluated and quantified once a week for a period of 5 weeks. Scores were given as follows for the four items of erythema/bleeding, edema, threshing/corrosion, scaling/dryness, respectively: 1 (none); 2 (moderate); and 3 (serious). Each experimental group and control group was scored based on a total of 12 points.
In order to confirm the effect of the compounds according to the present invention on relieving itching, the number of scratches for 20 minutes of each mouse of the experimental group and control group was measured, and the results are shown graphically in FIG. 5(a), (b).
After completing the experiment, the physical changes were observed by incising the dorsal skin of the experimental group and control group mice. As a result, hypertrophy and edema were clearly observed in the mouse treated with DNCB alone.
In addition, to confirm the alleviating effect of the compounds according to the present invention on skin hypertrophy, the incised skin thickness was measured, and the results are shown graphically in FIG. 5(b).
In order to confirm the effect of the compounds according to the present invention, the lymph node of each mouse of the experimental group and control group was separated and observed. The lymph node is an interaction site between the antigen and immune cells, and since the size of the lymph node increases during the development of inflammatory symptoms, it is possible to confirm the presence or absence of inflammatory disease depending on the size of the lymph node. The photographs of the separated lymph node of each mouse of the experimental group and control group are shown in FIG. 6(a), and the weight of the lymph node and the spleen of each mouse of the experimental group and control group are shown in FIG. 6(b) and FIG. 6(c).

[6] = 24 hours, compared to control group not-treated with any inhibitor
[7] = at the concentrations of 100 nM and 500 nM

Chain of PDE4B GFP fusion protein (human PDE4B2A) (Q07343 other isoform, or with tags, fused parts or gaps): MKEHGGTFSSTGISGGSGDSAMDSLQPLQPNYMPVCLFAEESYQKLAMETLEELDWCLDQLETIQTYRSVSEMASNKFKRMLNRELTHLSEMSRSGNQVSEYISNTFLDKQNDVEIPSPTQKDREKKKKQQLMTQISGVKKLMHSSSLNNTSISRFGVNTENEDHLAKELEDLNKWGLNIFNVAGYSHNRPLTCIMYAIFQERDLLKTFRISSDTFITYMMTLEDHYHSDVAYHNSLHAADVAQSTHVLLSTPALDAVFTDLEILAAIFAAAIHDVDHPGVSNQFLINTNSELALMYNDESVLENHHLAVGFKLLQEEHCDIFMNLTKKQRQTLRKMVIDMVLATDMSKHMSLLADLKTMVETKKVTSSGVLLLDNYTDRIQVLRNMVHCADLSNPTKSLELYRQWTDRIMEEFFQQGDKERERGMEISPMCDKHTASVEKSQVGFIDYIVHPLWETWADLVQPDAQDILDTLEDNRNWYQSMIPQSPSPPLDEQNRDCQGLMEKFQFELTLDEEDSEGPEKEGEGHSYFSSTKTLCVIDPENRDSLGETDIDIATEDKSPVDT
Chain of PDE4B enzyme (Q07343 whole entry): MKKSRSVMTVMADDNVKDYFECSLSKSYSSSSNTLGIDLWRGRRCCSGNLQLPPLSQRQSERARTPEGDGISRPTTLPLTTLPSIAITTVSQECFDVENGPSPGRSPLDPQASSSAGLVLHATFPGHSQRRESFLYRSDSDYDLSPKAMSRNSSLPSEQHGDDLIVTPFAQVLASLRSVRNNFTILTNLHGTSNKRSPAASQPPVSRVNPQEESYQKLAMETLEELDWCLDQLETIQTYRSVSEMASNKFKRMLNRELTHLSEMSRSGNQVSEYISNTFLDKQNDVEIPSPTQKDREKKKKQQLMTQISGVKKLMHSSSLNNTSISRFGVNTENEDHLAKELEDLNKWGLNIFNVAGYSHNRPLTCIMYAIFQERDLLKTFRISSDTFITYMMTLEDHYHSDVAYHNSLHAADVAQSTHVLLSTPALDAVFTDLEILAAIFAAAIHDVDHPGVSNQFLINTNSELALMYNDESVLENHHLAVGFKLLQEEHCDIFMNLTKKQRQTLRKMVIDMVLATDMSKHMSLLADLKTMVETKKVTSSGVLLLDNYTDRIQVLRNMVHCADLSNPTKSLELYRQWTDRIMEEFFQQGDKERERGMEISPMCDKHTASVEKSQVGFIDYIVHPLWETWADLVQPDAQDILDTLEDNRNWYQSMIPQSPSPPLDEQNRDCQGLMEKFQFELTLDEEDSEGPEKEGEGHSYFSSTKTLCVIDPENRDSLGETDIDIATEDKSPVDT

Row | fluorescence intensity of PDE4B GFP fusion protein [1, 6] | fluorescence intensity of PDE4B GFP fusion protein [1, 7] | skin structure of tissue sections (H&E) [2] | IC50 (PDE4B enzyme) [nM] | SMILES | expression of IFN-γ in CD4+ cells [2] | expression of IL-4 of CD4+ cells [2] | expression of IL-5 of CD4+ cells [2] | expression of IL-17 of CD4+ cells [2] | number of mast cells in skin tissue (toluidine blue) [2] | epidermal hyperplasia and keratosis (H&E) [2] | inflammatory cells in skin sections (H&E) [2] | synthesis of TNF-α [3] | expression of IFN-γ (ELISA) [4] | expression of IL-4 (ELISA) [4] | expression of IL-5 (ELISA) [4] | expression of IL-17 (ELISA) [4] | expression of IgE (ELISA) [4] | weight of the spleen [5] | lymph node size [5] | number of scratches for 20 minutes [5] | also measured
1 | relatively weak | significantly reduced | normal skin structure | 31 | COc1ccc(NC(=O)c2cnc(SC)nc2N2CCOCC2)cc1OC [Example 1, N-(3,4-dimethoxyphenyl)-2-(methylthio)-4-morpholinopyrimidine-5-carboxamide] | activated | more suppressed | more suppressed | more suppressed | significantly reduced | significantly reduced | almost no inflammatory cells | effectively inhibited | high | significantly suppressed | significantly suppressed | significantly suppressed | significantly reduced | significantly reduced | significantly reduced | significantly less | symptoms of hypertrophy and edema of incised dorsal skin [5]: no symptoms of hypertrophy and edema; weight of the lymph node [5]: significantly reduced; skin thickness [5]: 0.83 mm; side effects [5]: no side effects were observed; incidence of inflammation on the dorsal skin [5]: significantly reduced; dermatitis score at week 5 [5]: less than 3
2 | relatively weak | significantly reduced | normal skin structure | 15 | COc1ccc(-c2nc(C(F)(F)F)ncc2C(=O)Nc2ccncc2)cc1OC [Example 25, 4-(3,4-dimethoxyphenyl)-N-(pyridine-4-yl)-2-(trifluoromethyl)pyrimidine-5-carboxamide] | activated | more suppressed | more suppressed | more suppressed | significantly reduced | significantly reduced | almost no inflammatory cells | effectively inhibited | high | significantly suppressed | significantly suppressed | significantly suppressed | significantly reduced | significantly reduced | significantly reduced | significantly less | symptoms of hypertrophy and edema of incised dorsal skin [5]: no symptoms of hypertrophy and edema; weight of the lymph node [5]: significantly reduced; skin thickness [5]: 0.71 mm; side effects [5]: no side effects were observed; incidence of inflammation on the dorsal skin [5]: significantly reduced; dermatitis score at week 5 [5]: less than 3
